According to patent US11109593B2, “Isoxazolin-5-one derivative and herbicide containing same as active ingredient” (HOKKO CHEMICAL INDUSTRY CO., LTD., priority 2017, dated 2021):

Assays:
Type in all cases: in vivo
Echinochloa crus-galli [1] = assay: Test Example 1: herbicidal effect test by treatment of rice paddy soil (immediately after seeding); conditions: 120 g/10a active ingredient, dry weight vs untreated area, 14 days after treatment
Method in brief: (§1)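 Application occurs immediately after seeding, with diluted emulsion added to paddy water (about 3 cm deep) over puddled, fertilized soil at 120 g active ingredient per 10 ares. Herbicidal rate is calculated from mean dry weight against untreated controls 14 days later.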

Scirpus juncoides [2] = assay: as above; conditions: 120 g/10a active ingredient, dry weight vs untreated area, 14 days after treatment
Method in brief: as §1

[3] = test system: broad leaf weeds (Lindernia pyxidaria and Monochoria vaginalis); assay: as above; conditions: 120 g/10a active ingredient, dry weight vs untreated area, 14 days after treatment; for pest or weed control at 1200 g/ha: 336 h
Method in brief: as §1

Echinochloa crus-galli [4] = assay: Test Example 2: herbicidal effect test by treatment during growing period in paddy rice cultivation (seven days after seeding); conditions: 120 g/10a active ingredient, assessed 14 days after treatment, dry weight vs untreated area
Method in brief: (§2)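 Sow 30 seeds per species (0–1 cm) into puddled, fertilized paddy soil; keep flooded ~3 cm in greenhouse. Day 7 after seeding: drop water-diluted emulsion, 120 g a.i./10 ares. Harvest 14 d post-treatment; compare dry weight with untreated pots (duplicate).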

Scirpus juncoides [5] = assay: as above; conditions: 120 g/10a active ingredient, assessed 14 days after treatment, dry weight vs untreated area
Method in brief: as §2

[6] = test system: broad leaf weeds (Lindernia pyxidaria and Monochoria vaginalis); assay: as above; conditions: 120 g/10a active ingredient, assessed 14 days after treatment, dry weight vs untreated area; for pest or weed control at 1200 g/ha: 336 h
Method in brief: as §2

Amaranthus viridis [7] = assay: Test Example 3: herbicidal effect test by treatment of dry field farming soil (one day after seeding); conditions: 120 g/10a active ingredient, evaluated 14 days after treatment
Method in brief: (§3)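 Weeds were seeded into the upper soil layer of alluvial field soil and, one day afterwards, the soil surface was sprayed with water-diluted emulsion delivering 120 g active ingredient per 10 ares. Mean plant dry weight relative to untreated pots after 14 days gave the herbicidal rate, tested in duplicate.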

Chenopodium album [8] = assay: as above; conditions: 120 g/10a active ingredient, evaluated 14 days after treatment
Method in brief: as §3

Echinochloa crus-galli [9] = assay: as above; conditions: 120 g/10a active ingredient, evaluated 14 days after treatment
Method in brief: as §3

southern crabgrass [10] = assay: as above; conditions: 120 g/10a active ingredient, evaluated 14 days after treatment
Method in brief: as §3

Amaranthus viridis [11] = assay: Test Example 4: herbicidal effect test by treatment of leave and stem in dry field farming (seven days after seeding); conditions: 120 g/10a active ingredient, emulsion sprayed seven days after seeding, evaluated 14 days after treatment
Method in brief: (§4)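 Twenty seeds per species were mixed into the top 1 cm of alluvial soil in 36 cm^2 pots; emulsions were sprayed seven days after seeding at 100 L per 10 ares (120 g active ingredient per 10 ares). Herbicidal rate (%) = {1 − treated/untreated mean dry weight} × 100, 14 days after treatment, duplicate.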

Chenopodium album [12] = assay: as above; conditions: 120 g/10a active ingredient, emulsion sprayed seven days after seeding, evaluated 14 days after treatment
Method in brief: as §4

Echinochloa crus-galli [13] = assay: as above; conditions: 120 g/10a active ingredient, emulsion sprayed seven days after seeding, evaluated 14 days after treatment
Method in brief: as §4

southern crabgrass [14] = assay: as above; conditions: 120 g/10a active ingredient, emulsion sprayed seven days after seeding, evaluated 14 days after treatment
Method in brief: as §4

Row | SMILES | Herbicidal rate (%) Echinochloa crus-galli (Echinochloa crus-galli [1]) [%] | Herbicidal rate (%) Scirpus juncoides (Scirpus juncoides [2]) [%] | Herbicidal rate (%) Lindernia pyxidaria ([3]; Lindernia pyxidaria) [%] | Herbicidal rate (%) Monochoria vaginalis ([3]; Monochoria vaginalis) [%] | Herbicidal rate (%) Echinochloa crus-galli (Echinochloa crus-galli [4]) [%] | Herbicidal rate (%) Scirpus juncoides (Scirpus juncoides [5]) [%] | Herbicidal rate (%) Lindernia pyxidaria ([6]; Lindernia pyxidaria) [%] | Herbicidal rate (%) Monochoria vaginalis ([6]; Monochoria vaginalis) [%] | herbicidal rate, Amaranthus viridis (Amaranthus viridis [7]) [%] | herbicidal rate, Chenopodium album (Chenopodium album [8]) [%] | herbicidal rate, Echinochloa crus-galli (Echinochloa crus-galli [9]) [%] | herbicidal rate, southern crabgrass (southern crabgrass [10]) [%] | herbicidal effect (herbicidal rate), Amaranthus viridis (Amaranthus viridis [11]) [%] | herbicidal effect (herbicidal rate), Chenopodium album (Chenopodium album [12]) [%] | herbicidal effect (herbicidal rate), Echinochloa crus-galli (Echinochloa crus-galli [13]) [%] | herbicidal effect (herbicidal rate), southern crabgrass (southern crabgrass [14]) [%] | other results
1 | Cc1c(Cc2ccccc2NS(=O)(=O)C(F)(F)F)c(=O)on1CC(C)c1ccccc1 (centres unmarked) [Compound 1-219] | 100 | 90 | 90 | 80 | 90 | 90 | 40 | 70 | 90 | 40 | 90 | 80 | 40 | 0 | 90 | 60 | 
2 | C=CCOC(=O)N(c1ccccc1Cc1c(C)n(CC(C)C)oc1=O)S(=O)(=O)C(F)(F)F [Compound 1-707] | 90 | 90 | 90 | 90 | 90 | 90 | 90 | 90 | 90 | 90 | 90 | 90 | 40 | 40 | 90 | 90 | 
3 | Cc1c(Cc2ccccc2N(S(C)(=O)=O)S(=O)(=O)C(F)(F)F)c(=O)on1C(C)c1ccccc1 (centres unmarked) [Compound 1-907] | 90 | 90 | 90 | 90 | 90 | 90 | 90 | 90 | 90 | 90 | 90 | 90 | 40 | 40 | 90 | 90 | 
4 | COC(=O)N(c1ccccc1Cc1c(C)n(CC(C)C)oc1=O)S(=O)(=O)C(F)(F)F [Compound 1-580] | 90 | 90 | 90 | 90 | 90 | 90 | 90 | 90 | 90 | 90 | 90 | 90 | 40 | 40 | 90 | 90 | 
5 | Cc1c(Cc2ccccc2NS(=O)(=O)C(F)(F)F)c(=O)on1CCC(C)(C)C [Compound 1-116] | 90 | 90 | 90 | 80 | 90 | 90 | 60 | 80 | 80 | 50 | 90 | 90 | 60 | 50 | 80 | 40 | 
6 | Cc1c(Cc2ccccc2NS(=O)(=O)C(F)(F)F)c(=O)on1Cc1ccccc1 [Compound 1-180] | 90 | 90 | 90 | 90 | 70 | 90 | 80 | 90 | 30 | 30 | 80 | 80 | 0 | 40 | 50 | 50 | 
7 | CCC(C)n1oc(=O)c(Cc2ccccc2N(C(=O)C(C)C)S(=O)(=O)C(F)(F)F)c1C (centres unmarked) [Compound 1-330] | 90 | 90 | 90 | 90 | 90 | 90 | 90 | 90 | 90 | 90 | 90 | 90 | 40 | 40 | 90 | 90 | 
8 | CC(=O)N(c1ccccc1Cc1c(C)n(CC(C)C)oc1=O)S(=O)(=O)C(F)(F)F [Compound 1-297, N-[2-[(2-isobutyl-3-methyl-5-oxoisoxazol-4-yl)methyl]phenyl]-N-(trifluoromethylsulfonyl)acetamide] |  |  |  |  |  |  |  |  |  |  |  |  |  |  |  |  | pest or weed control at 1200 g/ha (Echinochloa crus-galli [1]; in Echinochloa crus-galli, 336 h, read-out: Herbicidal rate (%) Echinochloa crus-galli): 100%; pest or weed control at 1200 g/ha (Scirpus juncoides [2]; in Schoenoplectiella juncoides, 336 h, read-out: Herbicidal rate (%) Scirpus juncoides): 100%; pest or weed control at 1200 g/ha ([3]; Monochoria vaginalis, read-out: Herbicidal rate (%) Monochoria vaginalis): 100%; pest or weed control at 1200 g/ha ([3]; in Lindernia, Lindernia pyxidaria, read-out: Herbicidal rate (%) Lindernia pyxidaria): 100%; pest or weed control at 1200 g/ha (Echinochloa crus-galli [4]; Echinochloa crus-galli, 336 h, read-out: herbicidal rate (%) Echinochloa crus-galli): 100%; pest or weed control at 1200 g/ha (Scirpus juncoides [5]; Schoenoplectiella juncoides, 336 h, read-out: herbicidal rate (%) Scirpus juncoides): 90%; pest or weed control at 1200 g/ha ([6]; Lindernia pyxidaria, read-out: herbicidal rate (%) Lindernia pyxidaria): 100%; pest or weed control at 1200 g/ha ([6]; Monochoria vaginalis, read-out: herbicidal rate (%) Monochoria vaginalis): 90%; pest or weed control at 1200 g/ha (Amaranthus viridis [7]; Amaranthus viridis, 336 h, read-out: herbicidal rate, Amaranthus viridis): 90%; pest or weed control at 1200 g/ha (Chenopodium album [8]; Chenopodium album, 336 h, read-out: herbicidal rate, Chenopodium album): 90%; pest or weed control at 1200 g/ha (Echinochloa crus-galli [9]; Echinochloa crus-galli, 336 h, read-out: herbicidal rate, Echinochloa crus-galli): 100%; pest or weed control at 1200 g/ha (southern crabgrass [10]; Digitaria ciliaris, 336 h, read-out: herbicidal rate, southern crabgrass): 90%; pest or weed control at 1200 g/ha (Amaranthus viridis [11]; Amaranthus viridis, 336 h, read-out: herbicidal effect (herbicidal rate), Amaranthus viridis): 40%; pest or weed control at 1200 g/ha (Chenopodium album [12]; Chenopodium album, 336 h, read-out: herbicidal effect (herbicidal rate), Chenopodium album): 40%; pest or weed control at 1200 g/ha (Echinochloa crus-galli [13]; Echinochloa crus-galli, 336 h, read-out: herbicidal effect (herbicidal rate), Echinochloa crus-galli): 80%; pest or weed control at 1200 g/ha (southern crabgrass [14]; Digitaria ciliaris, 336 h, read-out: herbicidal effect (herbicidal rate), southern crabgrass): 60%
